Source: patent US7612107B2, “Treatment and inhibition of disease conditions using flexible heteroarotinoids” (The Board of Regents of the University of Oklahoma, priority 2005, dated 2009)

Tests used:
OVCAR-3 xenograft tumors = experiment: Histochemical and immunohistochemical evaluation of xenograft tumors (glands, MUC-1, TUNEL); format: in vivo, mouse; settings: 10 mg/kg/day gavage, end of treatment
Procedure: Statistically significant higher levels of glands and MUC-1 expression in the tumors of treated animals in comparison to controls treated with sesame oil are indicated by asterisks (*) and were determined by t-tests. For gland formation, p<0.001 for SHetA2, p=0.097 for SHetA4, p=0.001 for SHet50, and p=0.007 for 4-HPR. For MUC-1 scores, p=0.011 for SHetA2, p=0.050 for SHetA4, p=0.040 for SHet50, and p=0.001 for 4-HPR. The higher levels of TUNEL scores in the tumors of treated animals in comparison to control animals approached significance (t-test, p=0.27 for SHetA2, p=0.48 for SHetA4, p=0.20 for SHet50, and p=0.12 for 4-HPR).
On the last day of treatment, the animals were sacrificed and then the tumors were removed, fixed in neutral buffered formalin and embedded in paraffin. […] MUC-1 expression was detected in tumor sections using a mouse monoclonal antibody to human MUC-1 (Pharmingen, San Diego, Calif.) and the Histostain-Plus AEC Kit (Zymed Laboratories, San Francisco, Calif.) according to manufacturers instructions. […] Tumor sections were scored for number of glands (quantified in one H&E stained sections and 3 MUC-1-stained sections) and MUC-1 and TUNEL staining (based on staining intensity and percent positive cells). […]

[1] = system: EAhy.926 endothelial cells; experiment: Endothelial tube branching on matrigel; format: cell-based; settings: 1, 5 and 10 μM; 20 hours
Procedure: The graph on the left provides quantification of the endothelial branches for each treatment dose.
The increased thickness of the vessels at 1 μM and the increasing proportions of solitary clumps of cells at 5 and 10 μM indicate that SHetA2 is inhibiting endothelial cell migration. To determine if this anti-angiogenic activity was due to growth inhibition or cytotoxicity. The viability of the endothelial cells treated with SHetA2 for 24 hours was evaluated. […] This confirms the therapeutic ratio observed in previous studies.

[2] = system: blood vessel density in bFGF/VEGF-treated CAMs; experiment: Chorioallantoic membrane (CAM) assay; format: in vivo; settings: 5 μM SHetA2
Procedure: FIG. 8. Effect of 5 μM SHetA2 on blood vessel density in the CAM assay. The mean±SEM blood vessel density per treatment as compared to bFGF/VEGF-treated CAMs; *=p<0.05 and **=p<0.001 as compared to bFGF/VEGF-treated CAMs as determined by one-way ANOVA and Neuman-Keuls post-test.
The CAM assay that was used is based upon the original procedure by Jakob et al. (36) with modifications made by our laboratory (37, 38) (see FIG. 8).

NF-κB = NF-κB luciferase reporter assay in A2780 cultures; format: cell-based; settings: 10 μM SHetA2
Procedure: FIG. 15. SHetA2 Inhibition of NF-κB. A2780 cultures were transfected with the NF-κB reporter and treated with 10 μM SHetA2 for the indicated times. Cell lysates were prepared and evaluated for luciferase activity which was normalized for protein concentration.
Because both TP and TSP4 have DNA binding sites for the NFκB transcription factor in their promoter, the ability of SHetA2 to inhibit activity of NF-κB in ovarian cancer cultures was tested using a luciferase reporter plasmid driven by NF-κB sites in the promoter. […] Inhibition increased over the 4 hour evaluation time (FIG. 15).

CC1(C)CC(C)(C)c2cc(NC(=S)Nc3ccc([N+](=O)[O-])cc3)ccc2S1 [SHetA2]
MUC-1 expression in xenograft tumors (OVCAR-3 xenograft tumors; vs control): increase staining
Gland formation in xenograft tumors (OVCAR-3 xenograft tumors; vs untreated control): greatest degree of gland induction
Inhibition of angiogenesis: endothelial tube branching [1]: dose-responsive inhibition
Angiogenesis (blood vessel density) in CAM assay [2]: inhibits angiogenesis
Time to inhibition of NF-κB activity (NF-κB): ≤ 30 min
